Data as given in patent publication US20220125051A1, “PRE-HARVEST DESICCATION METHOD” (SYNGENTA CROP PROTECTION AG, priority 2019, published 2022).

Key:
Experiment in all cases: Post-emergence efficacy, Method A
Format in all cases: in vivo
[1] = tested on: Lolium perenne (LOLPE); details: Lolium perenne, post-emergence, 312 h, Application Rate 500 g/Ha; evaluated after 13 days; Method A; read-out: Control of weed species after post-emergence application, LOLPE (100=total damage to plant; 0=no damage to plant)
Protocol: (§1) Seeds of a variety of test species were sown in standard soil in pots. After cultivation for 14 days (post-emergence) under controlled conditions in a glasshouse (at 24/16° C., day/night; 14 hours light; 65% humidity), the plants were sprayed with an aqueous spray solution derived from the dissolution of the technical active ingredient formula (I) in a small amount of acetone and a special solvent and emulsifier mixture referred to as IF50 (11.12% Emulsogen EL360 TM+44.44% N-methylpyrrolidone+44.44% Dowanol DPM glycol ether), to create a 50 g/I solution which was then diluted to required concentration using 0.25% or 1% Empicol ESC70 (Sodium lauryl ether sulphate)+1% ammonium sulphate as diluent. The test plants were then grown in a glasshouse under controlled conditions (at 24/16° C., day/night; 14 hours light; 65% humidity) and watered twice daily. After 13 days the test was evaluated (100=total damage to plant; 0=no damage to plant).
(§2) Ipomoea hederacea (IPOHE), Euphorbia heterophylla (EPHHL), Chenopodium album (CHEAL), Amaranthus palmeri (AMAPA), Lolium perenne (LOLPE), Digitaria sanguinalis (DIGSA), Eleusine indica (ELEIN), Echinochloa crus-galli (ECHCG), Setaria faberi (SETFA)

[2] = tested on: Digitaria sanguinalis (DIGSA); details: Digitaria sanguinalis, post-emergence, 312 h; Application Rate 500 g/Ha; evaluated after 13 days; Method A; read-out: Control of weed species after post-emergence application, DIGSA (100=total damage to plant; 0=no damage to plant)
Protocol: as §1, §2

[3] = tested on: Ipomoea hederacea (IPOHE); details: Ipomoea hederacea, post-emergence, 312 h, Application Rate 500 g/Ha; evaluated after 13 days; Method A; read-out: Control of weed species after post-emergence application, IPOHE (100=total damage to plant; 0=no damage to plant)
Protocol: as §1, §2

[4] = tested on: Setaria faberi (SETFA); details: Setaria faberi, post-emergence, 312 h; Application Rate 500 g/Ha; evaluated after 13 days; Method A; read-out: Control of weed species after post-emergence application, SETFA (100=total damage to plant; 0=no damage to plant)
Protocol: as §1, §2

[5] = tested on: Chenopodium album (CHEAL); details: Chenopodium album, post-emergence, 312 h; Application Rate 500 g/Ha; evaluated after 13 days; Method A; read-out: Control of weed species after post-emergence application, CHEAL (100=total damage to plant; 0=no damage to plant)
Protocol: as §1, §2

[6] = tested on: Amaranthus palmeri (AMAPA); details: Amaranthus palmeri, post-emergence, 312 h; Application Rate 500 g/Ha; evaluated after 13 days; Method A; read-out: Control of weed species after post-emergence application, AMAPA (100=total damage to plant; 0=no damage to plant)
Protocol: as §1, §2

[7] = tested on: Echinochloa crus-galli (ECHCG); details: Echinochloa crus-galli, post-emergence, 312 h; Application Rate 500 g/Ha; evaluated after 13 days; Method A; read-out: Control of weed species after post-emergence application, ECHCG (100=total damage to plant; 0=no damage to plant)
Protocol: as §1, §2

[8] = tested on: Eleusine indica (ELEIN); details: Eleusine indica, post-emergence, 312 h; Application Rate 500 g/Ha; evaluated after 13 days; Method A; read-out: Control of weed species after post-emergence application, ELEIN (100=total damage to plant; 0=no damage to plant)
Protocol: as §1, §2

| Structure (SMILES) | pest or weed control at 500 g/ha [1] [%] | pest or weed control at 500 g/ha [2] [%] | pest or weed control at 500 g/ha [3] [%] | pest or weed control at 500 g/ha [4] [%] | pest or weed control at 500 g/ha [5] [%] | pest or weed control at 500 g/ha [6] [%] | pest or weed control at 500 g/ha [7] [%] | pest or weed control at 500 g/ha [8] [%] |
| --- | --- | --- | --- | --- | --- | --- | --- | --- |
| N#Cc1ccc(-c2cc[n+](CCC(=O)O)nc2)nc1 [Compound A176] | 40 | 30 | 40 | 40 | 30 | 40 | 30 | 70 |
| OCC[n+]1ccc(-c2ncccn2)cn1 [Compound A195, 2-(4-pyrimidin-2-ylpyridazin-1-ium-1-yl)ethanol 2,2,2-trifluoroacetate] | 0 | 20 | 20 | – | 60 | – | 10 | 10 |
| CC(CC[n+]1ccc(-c2ncccn2)cn1)S(=O)(=O)[O-] (stereo not drawn) [Compound A185] | 30 | 30 | 30 | 50 | 80 | 100 | 40 | 30 |
| NC(=O)c1ccc(-c2cc[n+](CCCS(=O)(=O)[O-])nc2)nc1 [Compound A183] | 10 | 30 | 20 | 10 | 0 | 10 | 20 | 10 |
| N#Cc1ccc(-c2cc[n+](CCS(=O)(=O)[O-])nc2)nc1 [Compound A169] | 50 | 50 | 40 | 50 | 70 | 100 | 40 | 90 |
| Cc1ccc(-c2cc[n+](CCC(=O)O)nc2)nc1 [Compound A199] | 0 | 50 | 10 | 30 | 40 | – | 20 | 10 |
| CC(CS(=O)(=O)[O-])[n+]1ccc(-c2ncccn2)cn1 (stereo not drawn) [Compound A181, 2-(4-pyrimidin-2-ylpyridazin-1-ium-1-yl)propane-1-sulfonate] | 90 | 80 | 80 | 60 | 90 | 90 | 100 | 100 |
| CC(C[n+]1ccc(-c2ccncn2)cn1)C(=O)O (stereo not drawn) [Compound A171] | 70 | 60 | 80 | 60 | 80 | 100 | 60 | 80 |
| O=S(=O)([O-])CC(O)C[n+]1ccc(-c2ccncn2)cn1 (stereo not drawn) [Compound A224] | 40 | 80 | 80 | 40 | 90 | 100 | 40 | 80 |
